# Data published in patent publication US20240041042A1, “1-(PYRIDYL)-5-AZINYLPYRAZOLE DERIVATIVES, AND THEIR USE FOR CONTROL OF UNDESIRED PLANT GROWTH” (Bayer Aktiengesellschaft, priority 2020, published 2024).
# Tests used:
# Type in all cases: in vivo
# [1] = test system: Polygonum convolvulus (POLCO); assay: Pre-emergence herbicidal action against POLCO; details: dosage 320 g/ha
# Summary of the method: (§1)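 Seeds sown in pots and covered with soil; WP or EC formulations sprayed onto the soil surface at 600 l/ha water with 0.5% additive, at 320 g/ha or lower. Greenhouse growth for about 3 weeks, then visual scoring as % effect against untreated controls (100% = plants dead).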
# [2] = test system: Viola tricolor (VIOTR); assay: Post-emergence herbicidal action against VIOTR
# Summary of the method: (§2)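 Post-emergence greenhouse spray, one-leaf stage, 600 l/ha water plus 0.5% additive; WP or EC formulations; application rates 320 g/ha or lower. Visual % damage vs untreated controls at ~3 weeks.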
# [3] = test system: Avena fatua (AVEFA); assay: Pre-emergence herbicidal action against AVEFA; details: 320 g/ha, visual scoring after about 3 weeks vs untreated controls
# Summary of the method: as §1
# [4] = test system: Amaranthus retroflexus (AMARE); assay: Post-emergence herbicidal action against AMARE
# Summary of the method: as §2
# [5] = test system: Amaranthus retroflexus (AMARE); assay: Pre-emergence herbicidal action against AMARE; details: visual scoring after about 3 weeks vs untreated controls
# Summary of the method: as §1
# [6] = test system: Setaria viridis (SETVI); assay: Pre-emergence herbicidal action against SETVI
# Summary of the method: as §1
# [7] = test system: Verconica persica (VERPE); assay: Post-emergence herbicidal action against VERPE
# Summary of the method: as §2
# [8] = test system: Setaria viridis (SETVI); assay: Post-emergence herbicidal action against SETVI
# Summary of the method: as §2
# [9] = test system: Lolium rigidum (LOLRI); assay: Post-emergence herbicidal action against LOLRI
# Summary of the method: as §2
# [10] = test system: Lolium rigidum (LOLRI); assay: Pre-emergence herbicidal action against LOLRI; details: dosage 320 g/ha
# Summary of the method: as §1
# [11] = test system: Echinochloa crus-galli (ECHCG); assay: Pre-emergence herbicidal action against ECHCG
# Summary of the method: as §1
# [12] = test system: Abutilon theophrasti (ABUTH); assay: Post-emergence herbicidal action against ABUTH; details: visual rating about 3 weeks after treatment vs untreated controls (100% = plants have died, 0% = like control plants)
# Summary of the method: as §2
# [13] = test system: Pharbitis purpurea (PHBPU); assay: Post-emergence herbicidal action against PHBPU; details: dosage 320 g/ha
# Summary of the method: as §2
# [14] = test system: Echinochloa crus-galli (ECHCG); assay: Post-emergence herbicidal action against ECHCG
# Summary of the method: as §2
# [15] = test system: Matricaria inodora (MATIN); assay: Post-emergence herbicidal action against MATIN
# Summary of the method: as §2
# [16] = test system: Avena fatua (AVEFA); assay: Post-emergence herbicidal action against AVEFA; details: visual rating about 3 weeks after treatment
# Summary of the method: as §2
# [17] = test system: Matricaria inodora (MATIN); assay: Pre-emergence herbicidal action against MATIN; details: dosage 320 g/ha
# Summary of the method: as §1
# [18] = test system: Alopecurus myosuroides (ALOMY); assay: Pre-emergence herbicidal action against ALOMY; details: scored visually after about 3 weeks, 100% = plants have died
# Summary of the method: as §1
# [19] = test system: Viola tricolor (VIOTR); assay: Pre-emergence herbicidal action against VIOTR
# Summary of the method: as §1
# [20] = test system: Alopecurus myosuroides (ALOMY); assay: Post-emergence herbicidal action against ALOMY; details: visual rating about 3 weeks after treatment vs untreated controls (100% = plants have died, 0% = like control plants)
# Summary of the method: as §2
# [21] = test system: Polygonum convolvulus (POLCO); assay: Post-emergence herbicidal action against POLCO
# Summary of the method: as §2
# [22] = test system: Pharbitis purpurea (PHBPU); assay: Pre-emergence herbicidal action against PHBPU; details: dosage 320 g/ha
# Summary of the method: as §1
# [23] = test system: Verconica persica (VERPE); assay: Pre-emergence herbicidal action against VERPE; details: dosage 320 g/ha
# Summary of the method: as §1
structure (smiles),measurement,setting,value
COC(=O)COc1nn(-c2ncccc2F)c(-c2ccc(F)nc2)c1C1CC1 [Example I-42],Pre-emergence action against POLCO in %,[1],90%
same,Post-emergence action against VIOTR in %,[2]; 80 g/ha,90%
same,Post-emergence action against VIOTR in %,[2]; 320 g/ha,90%
same,Pre-emergence action against AVEFA in %,[3],100%
same,Post-emergence action against AMARE in %,"[4]; 80 g/ha, visual rating about 3 weeks after treatment vs untreated controls (100% = plants have died, 0% = like control plants)",90%
same,Post-emergence action against AMARE in %,"[4]; 320 g/ha, visual rating about 3 weeks after treatment",90%
same,Pre-emergence action against AMARE in %,[5]; 80 g/ha,90%
same,Pre-emergence action against AMARE in %,[5]; 320 g/ha,100%
same,Pre-emergence action against SETVI in %,[6]; dosage 80 g/ha,100%
same,Pre-emergence action against SETVI in %,[6]; dosage 320 g/ha,100%
same,Post-emergence action against VERPE in %,"[7]; 320 g/ha, VERPE",90%
same,Post-emergence action against VERPE in %,[7]; dosage 80 g/ha,90%
same,Post-emergence action against SETVI in %,[8]; dosage 80 g/ha,90%
same,Post-emergence action against SETVI in %,[8]; dosage 320 g/ha,90%
same,Post-emergence action against LOLRI in %,[9]; dosage 80 g/ha,100%
same,Post-emergence action against LOLRI in %,[9]; dosage 320 g/ha,100%
same,Pre-emergence action against LOLRI in %,[10],100%
same,Pre-emergence action against ECHCG in %,[11]; dosage 80 g/ha,100%
same,Pre-emergence action against ECHCG in %,[11]; dosage 320 g/ha,100%
same,Post-emergence action against ABUTH in %,[12]; 80 g/ha,90%
same,Post-emergence action against ABUTH in %,[12]; 320 g/ha,90%
same,Post-emergence action against PHBPU in %,[13],90%
same,Post-emergence action against ECHCG in %,[14]; dosage 80 g/ha,90%
same,Post-emergence action against ECHCG in %,[14]; dosage 320 g/ha,90%
same,Post-emergence action against MATIN in %,[15]; dosage 80 g/ha,80%
same,Post-emergence action against MATIN in %,[15]; dosage 320 g/ha,90%
same,Post-emergence action against AVEFA in %,[16]; 80 g/ha,100%
same,Post-emergence action against AVEFA in %,[16]; 320 g/ha,100%
same,Pre-emergence action against MATIN in %,[17],100%
same,Pre-emergence action against ALOMY,[18]; 80 g/ha,100%
same,Pre-emergence action against ALOMY,[18]; 320 g/ha,100%
same,Pre-emergence action against VIOTR in %,"[19]; 320 g/ha, Viola tricolor",100%
same,Pre-emergence action against VIOTR in %,[19]; dosage 80 g/ha,100%
same,Post-emergence action against ALOMY in %,[20]; 80 g/ha,100%
same,Post-emergence action against ALOMY in %,[20]; 320 g/ha,100%
same,Post-emergence action against POLCO in %,[21]; dosage 80 g/ha,80%
same,Post-emergence action against POLCO in %,[21]; dosage 320 g/ha,90%
same,Pre-emergence action against PHBPU in %,[22],90%
same,Pre-emergence action against VERPE in %,[23],100%
